Experimental data published in publication PMC5433425 (PeerJ, 2017).
“And” between values parts separate entries of the source, which are not always exact repeats. Equal entries are not always repeated. Where two headings read alike, the source gives them in different places.

What was measured:
[1] = test system: E. coli AG100; assay: Checkerboard synergy assay (MIC of antibiotics/EtBr with efflux inhibitor); format: cell-based, Escherichia coli; details: AG100
Procedure: (§1) The assays were performed in triplicate and the MIC value was given as result of at least two concordant values.

[2] = test system: E. coli AG100tet; assay: microbe, parasite or virus in culture; format: cell-based, Escherichia coli; details: AG100tet
Procedure: as §1

[3] = test system: E. coli AG100A (AcrAB pump-deficient); assay: MIC, broth microdilution; format: cell-based, Escherichia coli
[4] = test system: E. coli AG100; assay: Membrane potential assay (BacLight, DiOC2(3))
[5] = test system: E. coli AG100A; details: EtBr […] + inhibitor 20 µM
[6] = test system: E. coli AG100tet; assay: EtBr accumulation by real-time fluorometry; details: EtBr 2 µg/ml + inhibitor 80 µM

## CCCOc1ccc(-c2cc(OCCN3CCNCC3)c3ccccc3n2)cc1 [PQQ4R, 4-(2-(piperazin-1-yl)ethoxy)-2-(4-propoxyphenyl) quinolone]
[1]; inhibitor 40 μM
  MIC of EtBr in presence of the efflux inhibitor: 200 µg/mL
  MIC of OFX in presence of the efflux inhibitor: 0.125 µg/mL
  MIC of OXA in presence of the efflux inhibitor: 512 µg/mL
  MIC of TET in presence of the efflux inhibitor: 1 µg/mL
[1]; inhibitor 80 μM
  MIC of EtBr in presence of the efflux inhibitor: 100 µg/mL
  MIC of OFX in presence of the efflux inhibitor: 0.125 µg/mL
  MIC of OXA in presence of the efflux inhibitor: 512 µg/mL
  MIC of TET in presence of the efflux inhibitor: 1 µg/mL
  reduction in EtBr MIC: 2 fold
[1]; inhibitor 160 μM
  MIC of EtBr in presence of the efflux inhibitor: 50 µg/mL
  MIC of OFX in presence of the efflux inhibitor: 0.125 µg/mL
  MIC of OXA in presence of the efflux inhibitor: 512 µg/mL
  MIC of TET in presence of the efflux inhibitor: 1 µg/mL
  reduction in EtBr MIC: 4 fold
[1]; inhibitor 40 to 160 µM
  effect on OXA MIC: no effect
  reduction in OFX MIC: 2 fold
  reduction in TET MIC: 2 fold
[2]; inhibitor 40 μM
  MIC of EtBr in presence of the efflux inhibitor: 512 µg/mL
  MIC of OFX in presence of the efflux inhibitor: 0.5 µg/mL
  MIC of OXA in presence of the efflux inhibitor: >2,048 μg/ml
  MIC of TET in presence of the efflux inhibitor: 16 µg/mL
[2]; inhibitor 80 μM
  MIC of EtBr in presence of the efflux inhibitor: 512 µg/mL
  MIC of OFX in presence of the efflux inhibitor: 0.25 µg/mL
  MIC of OXA in presence of the efflux inhibitor: 2,048 μg/ml
  MIC of TET in presence of the efflux inhibitor: 16 µg/mL
[2]; inhibitor 160 μM
  MIC of EtBr in presence of the efflux inhibitor: 512 µg/mL
  MIC of OFX in presence of the efflux inhibitor: 0.25 µg/mL
  MIC of OXA in presence of the efflux inhibitor: 2,048 μg/ml
  MIC of TET in presence of the efflux inhibitor: 16 µg/mL
[2]; inhibitor 80 and 160 µM
  decrease in OFX MIC: 4 fold
  decrease in TET MIC: 4 fold
[3]; AG100A vs AG100
  MIC decrease against AG100A compared with wild-type parental strain: 8 fold
[3]; E. coli AG100A
  MIC: 32 μg/ml and 81.7 μM
[4]; 80 µM
  membrane depolarization: 83%
[4]; 160 μM (1/4 MIC)
  membrane depolarization: 85%
[4]; 320 μM (1/2 MIC)
  membrane depolarization: 89%
[4]; 640 μM (MIC)
  membrane depolarization: 91%
[5]; cycle 1
  EtBr fluorescence: 3.005
[5]; cycle 2
  EtBr fluorescence: 3.689
[5]; cycle 3
  EtBr fluorescence: 4.425
[5]; cycle 4
  EtBr fluorescence: 5.09
[5]; cycle 5
  EtBr fluorescence: 5.663
[5]; cycle 6
  EtBr fluorescence: 6.261
[5]; cycle 7
  EtBr fluorescence: 6.784
[5]; cycle 8
  EtBr fluorescence: 7.347
[5]; cycle 9
  EtBr fluorescence: 7.957
[5]; cycle 10
  EtBr fluorescence: 8.552
[5]; cycle 11
  EtBr fluorescence: 9.107
[5]; cycle 12
  EtBr fluorescence: 9.505
[5]; cycle 13
  EtBr fluorescence: 10.1469
[5]; cycle 14
  EtBr fluorescence: 10.666
[5]; cycle 15
  EtBr fluorescence: 11.2994
[5]; cycle 16
  EtBr fluorescence: 11.7134
[5]; cycle 17
  EtBr fluorescence: 12.3988
[5]; cycle 18
  EtBr fluorescence: 12.7522
[5]; cycle 19
  EtBr fluorescence: 13.174
[5]; cycle 20
  EtBr fluorescence: 13.8181
[5]; cycle 21
  EtBr fluorescence: 14.2909
[5]; cycle 22
  EtBr fluorescence: 14.7163
[5]; cycle 23
  EtBr fluorescence: 15.2505
[5]; cycle 24
  EtBr fluorescence: 16.0503
[5]; cycle 25
  EtBr fluorescence: 16.1642
[5]; cycle 26
  EtBr fluorescence: 16.8061
[5]; cycle 27
  EtBr fluorescence: 17.3806
[5]; cycle 28
  EtBr fluorescence: 17.8352
[5]; cycle 29
  EtBr fluorescence: 18.1109
[5]; cycle 30
  EtBr fluorescence: 18.6334
[6]; cycle 1
  EtBr fluorescence: 9.875
[6]; cycle 2
  EtBr fluorescence: 10.6846
[6]; cycle 3
  EtBr fluorescence: 11.6019
[6]; cycle 4
  EtBr fluorescence: 12.4491
[6]; cycle 5
  EtBr fluorescence: 13.6501
[6]; cycle 6
  EtBr fluorescence: 14.6495
[6]; cycle 7
  EtBr fluorescence: 15.6732
[6]; cycle 8
  EtBr fluorescence: 16.6247
